Data as given in patent US20240287138A1, “CYCLIC PEPTIDES FOR INHIBITING TNF RECEPTOR 1 ACTIVITY” (Merck Sharp & Dohme LLC, priority 2023, published 2024).
Numbered stars: 1 amine (or outer) side, 2 acyl side, 3 side chain; on linkers, the order of the positions; unused ones are H or OH. Square brackets hold non-standard residues; d marks the D form. Peptide text beside a SMILES is read from it. * marks the point of attachment. Trp(7-aza,1-CH2COOH) = N[C@@H](Cc1cn(CC(=O)O)c2ncccc12)C(=O)O; Trp(βS-Me,7-OMe) = COc1cccc2c([C@H](C)[C@H](N)C(=O)O)c[nH]c12; X49 = C[N+](C)(C)CC(=O)N[C@H]1C[C@H](C(=O)[*:2])N([*:1])C1; Trp(1-CH2COOH) = N[C@@H](Cc1cn(CC(=O)O)c2ccccc12)C(=O)O; X44 = NC(=O)c1ccc([C@@H](O)[C@H](N[*:1])C(=O)[*:2])cc1; Phe(4-SO2NH2) = N[C@@H](Cc1ccc(S(N)(=O)=O)cc1)C(=O)O; Trp(7-CN) = N#Cc1cccc2c(C[C@H](N)C(=O)O)c[nH]c12; Trp(7-Cl) = N[C@@H](Cc1c[nH]c2c(Cl)cccc12)C(=O)O; X27 = O=C(O)c1ccc(C[C@H](N[*:1])C(=O)[*:2])cc1F; Phe(4-CONH2) = NC(=O)c1ccc(C[C@H](N)C(=O)O)cc1; Phe(4-COOH) = N[C@@H](Cc1ccc(C(=O)O)cc1)C(=O)O; X30 = O=C([C@@H](N[*:1])[C@H](O)c1ccncc1)[*:2]; Trp(7-aza) = N[C@@H](Cc1c[nH]c2ncccc12)C(=O)O; X52 = C[C@@H](C(=O)[*:2])N(CCC(N)=O)[*:1]; Pip(5R-OH) = O=C(O)[C@@H]1CC[C@@H](O)CN1; X1 = O=C([C@@H]1CC[C@H](N[*:1])C1)[*:2]; AEF = NCCOc1ccc(C[C@H](N)C(=O)O)cc1; 4Pal = N[C@@H](Cc1ccncc1)C(=O)O; Ethyl(2-NMe3+) = C[N+](C)(C)CC*; NMeE = CN[C@@H](CCC(=O)O)C(=O)O; dHyp = O=C(O)[C@H]1C[C@H](O)CN1; αMeS = C[C@](N)(CO)C(=O)O; Carboxymethyl = O=C(O)C*; Nle = CCCC[C@H](N)C(=O)O; Sar = CNCC(=O)O

Columns and labels:
[1] = target: T1, human soluble TNFR1 (sTNFR1) (Homo sapiens, UniProt P19438); assay: Human sTNFR1-peptide displacement assay (LanthaScreen Eu TR-FRET binding assay)
T1 construct: made in house; host or cells: Sf21 (baculovirus)
T1 sequence (P19438 with tags, fused parts or gaps): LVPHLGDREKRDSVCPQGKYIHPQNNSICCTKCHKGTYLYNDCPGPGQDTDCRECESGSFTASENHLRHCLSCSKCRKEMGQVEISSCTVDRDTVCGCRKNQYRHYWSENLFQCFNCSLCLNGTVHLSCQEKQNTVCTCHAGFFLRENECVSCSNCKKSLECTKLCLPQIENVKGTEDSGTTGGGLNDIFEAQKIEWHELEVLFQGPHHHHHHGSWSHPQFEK
Summary of the method: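 Readout is the 665/615 nm TR-FRET ratio (Eu anti-His donor, streptavidin-Alexa647 acceptor), normalized to DMSO and saturating displacer, fit by Morrison-based five-parameter logistic for Kd^app. His-tagged sTNFR1 (1-211) prebound to 100 nM biotinylated peptide SEQ ID NO.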

[2] = target: T2, TNFα-induced NF-κB signal transduction pathway (TNFR1 signaling) in THP-1 cells (Homo sapiens, UniProt P19438); assay: THP-1 Lucia NF-κB reporter cell assay, inhibition of TNFα-induced NF-κB signaling; type: cell-based; details: THP-1 NF-κB Lucia reporter cells, 10 ng/mL TNFα, 16-18 h, secreted luciferase; read-out: THP-1 IC50
T2 sequence (P19438 30-455): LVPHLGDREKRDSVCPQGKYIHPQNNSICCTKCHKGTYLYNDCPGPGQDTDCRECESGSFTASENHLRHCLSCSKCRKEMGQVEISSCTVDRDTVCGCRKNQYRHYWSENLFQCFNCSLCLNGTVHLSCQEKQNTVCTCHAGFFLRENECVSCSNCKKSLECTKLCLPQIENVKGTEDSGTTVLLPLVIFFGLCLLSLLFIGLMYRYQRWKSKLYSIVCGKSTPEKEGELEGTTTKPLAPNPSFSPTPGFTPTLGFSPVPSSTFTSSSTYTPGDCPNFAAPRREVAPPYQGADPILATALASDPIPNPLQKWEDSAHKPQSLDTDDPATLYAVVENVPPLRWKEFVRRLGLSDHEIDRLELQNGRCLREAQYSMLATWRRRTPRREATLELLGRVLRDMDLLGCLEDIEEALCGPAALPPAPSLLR
Summary of the method: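 Macrocyclic peptides were preincubated 1 h at 37 °C with THP-1 NF-κB-Lucia reporter cells (20,000 cells/well) in antibiotic-free RPMI 1640/10% FBS, then stimulated with 10 ng/mL human TNFα overnight (16-18 h). Secreted luciferase in supernatant was read by luminescence; IC50 from 4-parameter logistic fits.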

SMILES	Kd [1] [nM]	IC50 [2] [nM]
CCCC[C@@H]1NC(=O)[C@@H]2CC[C@@H](C2)NC(=O)[C@H]([C@@H](C)c2c[nH]c3c(OC)cccc23)NC(=O)CN(C)C(=O)[C@H](Cc2ccc(C(=O)O)c(F)c2)NC(=O)[C@H](Cc2ccc(C(N)=O)cc2)NC(=O)[C@](C)(CO)NC(=O)[C@H](Cc2c[nH]c3c(C#N)cccc23)NC(=O)[C@H](Cc2ccc(C(=O)O)cc2)NC(=O)[C@H](CC(N)=O)NC(=O)[C@H]2C[C@H](NC(=O)C[N+](C)(C)C)CN2C(=O)[C@H](Cc2c[nH]c3ncccc23)NC(=O)[C@@H]2CC[C@@H](O)CN2C(=O)[C@H](Cc2ccncc2)NC1=O [SEQ ID NO. 113] (cyclo([4Pal][Pip(5R-OH)][Trp(7-aza)][X49]N[Phe(4-COOH)][Trp(7-CN)][αMeS][Phe(4-CONH2)][X27][Sar][Trp(βS-Me,7-OMe)][X1][Nle]))	0.09	0.5
CCCC[C@@H]1NC(=O)[C@@H]2CC[C@@H](C2)NC(=O)[C@H]([C@@H](C)c2c[nH]c3c(OC)cccc23)NC(=O)CN(C)C(=O)[C@H](Cc2ccc(OCC(=O)O)cc2)NC(=O)[C@H](Cc2ccc(S(N)(=O)=O)cc2)NC(=O)[C@](C)(CO)NC(=O)[C@H](Cc2c[nH]c3c(C#N)cccc23)NC(=O)[C@H](Cc2ccncc2)NC(=O)[C@H](CC(N)=O)NC(=O)[C@H]2C[C@H](OCC(=O)O)CN2C(=O)[C@H](Cc2cn(CC(=O)O)c3ncccc23)NC(=O)[C@@H]2CC[C@@H](O)CN2C(=O)[C@H](Cc2ccncc2)NC1=O [SEQ ID NO. 115] (cyclo([4Pal][Trp(7-CN)][αMeS][Phe(4-SO2NH2)]Y(Carboxymethyl)[Sar][Trp(βS-Me,7-OMe)][X1][Nle][4Pal][Pip(5R-OH)][Trp(7-aza,1-CH2COOH)][dHyp](Carboxymethyl)N))	0.19	1.4
CCCC[C@@H]1NC(=O)[C@@H]2CC[C@@H](C2)NC(=O)[C@H]([C@@H](C)c2c[nH]c3c(OC)cccc23)NC(=O)CN(C)C(=O)[C@H](Cc2ccc(C(=O)O)cc2)NC(=O)[C@H](Cc2ccc(C(N)=O)cc2)NC(=O)[C@](C)(CO)NC(=O)[C@H](Cc2c[nH]c3c(C#N)cccc23)NC(=O)[C@H](Cc2ccc(C(=O)O)c(F)c2)NC(=O)[C@H](CC(N)=O)NC(=O)[C@H]2C[C@H](NC(=O)C[N+](C)(C)C)CN2C(=O)[C@H](Cc2c[nH]c3ncccc23)NC(=O)[C@@H]2CC[C@@H](O)CN2C(=O)[C@H](Cc2ccncc2)NC1=O [SEQ ID NO. 116] (cyclo([4Pal][Pip(5R-OH)][Trp(7-aza)][X49]N[X27][Trp(7-CN)][αMeS][Phe(4-CONH2)][Phe(4-COOH)][Sar][Trp(βS-Me,7-OMe)][X1][Nle]))	0.08	0.4
CCCC[C@@H]1NC(=O)[C@@H]2CC[C@@H](C2)NC(=O)[C@H]([C@@H](C)c2c[nH]c3c(OC)cccc23)NC(=O)CN(C)C(=O)[C@H](Cc2ccc(C(=O)O)cc2)NC(=O)[C@H]([C@H](O)c2ccc(C(N)=O)cc2)NC(=O)[C@](C)(CO)NC(=O)[C@H](Cc2c[nH]c3c(C#N)cccc23)NC(=O)[C@H](Cc2ccc(S(N)(=O)=O)cc2)NC(=O)[C@H](CC(N)=O)NC(=O)[C@H]2C[C@H](O)CN2C(=O)[C@H](Cc2cn(CC(=O)O)c3ccccc23)NC(=O)[C@@H]2CC[C@@H](O)CN2C(=O)[C@H](Cc2ccncc2)NC1=O [SEQ ID NO. 119] (cyclo([4Pal][Pip(5R-OH)][Trp(1-CH2COOH)][dHyp]N[Phe(4-SO2NH2)][Trp(7-CN)][αMeS][X44][Phe(4-COOH)][Sar][Trp(βS-Me,7-OMe)][X1][Nle]))	0.12	0.7
CCCC[C@@H]1NC(=O)[C@@H]2CC[C@@H](C2)NC(=O)[C@H]([C@@H](C)c2c[nH]c3c(OC)cccc23)NC(=O)CN(C)C(=O)[C@H](Cc2ccc(OCC(=O)O)cc2)NC(=O)[C@H](Cc2ccc(C(N)=O)cc2)NC(=O)[C@](C)(CO)NC(=O)[C@H](Cc2c[nH]c3c(Cl)cccc23)NC(=O)[C@H](Cc2ccncc2)NC(=O)[C@H](CC(N)=O)NC(=O)[C@H](CCC(=O)O)N(C)C(=O)[C@H](Cc2c[nH]c3ccccc23)NC(=O)[C@@H]2CC[C@@H](O)CN2C(=O)[C@H](Cc2ccncc2)NC1=O [SEQ ID NO. 126] (cyclo([4Pal][Trp(7-Cl)][αMeS][Phe(4-CONH2)]Y(Carboxymethyl)[Sar][Trp(βS-Me,7-OMe)][X1][Nle][4Pal][Pip(5R-OH)]W[NMeE]N))	0.08	0.8
CCCC[C@@H]1NC(=O)[C@@H]2CC[C@@H](C2)NC(=O)[C@H]([C@@H](C)c2c[nH]c3c(OC)cccc23)NC(=O)CN(C)C(=O)[C@H](Cc2ccc(C(N)=O)cc2)NC(=O)[C@H](Cc2ccc(C(N)=O)cc2)NC(=O)[C@](C)(CO)NC(=O)[C@H](Cc2c[nH]c3c(C#N)cccc23)NC(=O)[C@H]([C@H](O)c2ccncc2)NC(=O)[C@H](CC(N)=O)NC(=O)[C@H]2C[C@H](OCC(=O)O)CN2C(=O)[C@H](Cc2cn(CC(=O)O)c3ccccc23)NC(=O)[C@@H]2CC[C@@H](O)CN2C(=O)[C@H](Cc2ccncc2)NC1=O [SEQ ID NO. 129] (cyclo([4Pal][Pip(5R-OH)][Trp(1-CH2COOH)][dHyp](Carboxymethyl)N[X30][Trp(7-CN)][αMeS][Phe(4-CONH2)][Phe(4-CONH2)][Sar][Trp(βS-Me,7-OMe)][X1][Nle]))	0.48	3.1
CCCC[C@@H]1NC(=O)[C@@H]2CC[C@@H](C2)NC(=O)[C@H]([C@@H](C)c2c[nH]c3c(OC)cccc23)NC(=O)CN(C)C(=O)[C@H](Cc2ccc(OCC(=O)O)cc2)NC(=O)[C@H](Cc2ccc(S(N)(=O)=O)cc2)NC(=O)[C@](C)(CO)NC(=O)[C@H](Cc2c[nH]c3c(C#N)cccc23)NC(=O)[C@H](Cc2ccc(OCC(=O)O)cc2)NC(=O)[C@H](CC(N)=O)NC(=O)[C@H]2C[C@H](O)CN2C(=O)[C@H](Cc2c[nH]c3ccccc23)NC(=O)[C@@H]2CC[C@@H](O)CN2C(=O)[C@H](Cc2ccncc2)NC1=O [SEQ ID NO. 135] (cyclo([4Pal][Pip(5R-OH)]W[dHyp]NY(Carboxymethyl)[Trp(7-CN)][αMeS][Phe(4-SO2NH2)]Y(Carboxymethyl)[Sar][Trp(βS-Me,7-OMe)][X1][Nle]))	0.07	0.4
CCCC[C@@H]1NC(=O)[C@@H]2CC[C@@H](C2)NC(=O)[C@H]([C@@H](C)c2c[nH]c3c(OC)cccc23)NC(=O)CN(C)C(=O)[C@H](Cc2ccc(C(N)=O)cc2)NC(=O)[C@H](Cc2ccc(S(N)(=O)=O)cc2)NC(=O)[C@](C)(CO)NC(=O)[C@H](Cc2c[nH]c3c(C#N)cccc23)NC(=O)[C@H](Cc2ccc(C(=O)O)cc2)NC(=O)[C@H](CC(N)=O)NC(=O)[C@H]2C[C@H](OCC[N+](C)(C)C)CN2C(=O)[C@H](Cc2cn(CC(=O)O)c3ccccc23)NC(=O)[C@@H]2CC[C@@H](O)CN2C(=O)[C@H](Cc2ccncc2)NC1=O [SEQ ID NO. 136] (cyclo([4Pal][Pip(5R-OH)][Trp(1-CH2COOH)][dHyp](Ethyl(2-NMe3+))N[Phe(4-COOH)][Trp(7-CN)][αMeS][Phe(4-SO2NH2)][Phe(4-CONH2)][Sar][Trp(βS-Me,7-OMe)][X1][Nle]))	0.07	0.4
CCCC[C@@H]1NC(=O)[C@@H]2CC[C@@H](C2)NC(=O)[C@H]([C@@H](C)c2c[nH]c3c(OC)cccc23)NC(=O)CN(C)C(=O)[C@H](Cc2ccc(O)cc2)NC(=O)[C@H](Cc2ccc(C(N)=O)cc2)NC(=O)[C@](C)(CO)NC(=O)[C@H](Cc2c[nH]c3c(Cl)cccc23)NC(=O)[C@H](Cc2ccc(OCCN)cc2)NC(=O)[C@H](CC(N)=O)NC(=O)[C@H](CCC(=O)O)N(C)C(=O)[C@H](Cc2c[nH]c3ccccc23)NC(=O)[C@@H]2CC[C@@H](O)CN2C(=O)[C@H](Cc2ccncc2)NC1=O [SEQ ID NO. 145] (cyclo([4Pal][Pip(5R-OH)]W[NMeE]N[AEF][Trp(7-Cl)][αMeS][Phe(4-CONH2)]Y[Sar][Trp(βS-Me,7-OMe)][X1][Nle]))	0.18	0.8
CCCC[C@@H]1NC(=O)[C@@H]2CC[C@@H](C2)NC(=O)[C@H]([C@@H](C)c2c[nH]c3c(OC)cccc23)NC(=O)CN(C)C(=O)[C@H](Cc2ccc(C(N)=O)cc2)NC(=O)[C@H](Cc2ccc(C(N)=O)cc2)NC(=O)[C@](C)(CO)NC(=O)[C@H](Cc2c[nH]c3c(C#N)cccc23)NC(=O)[C@H](Cc2ccc(C(=O)O)cc2)NC(=O)[C@H](CC(N)=O)NC(=O)[C@H](C)N(CCC(N)=O)C(=O)[C@H](Cc2c[nH]c3ncccc23)NC(=O)[C@@H]2CC[C@@H](O)CN2C(=O)[C@H](Cc2ccncc2)NC1=O [SEQ ID NO. 147] (cyclo([4Pal][Pip(5R-OH)][Trp(7-aza)][X52]N[Phe(4-COOH)][Trp(7-CN)][αMeS][Phe(4-CONH2)][Phe(4-CONH2)][Sar][Trp(βS-Me,7-OMe)][X1][Nle]))	0.21	1.4
